In the supplement of paper PMC10307832:

Columns and labels:
Experiment in all cases: relative viability (nuclei count vs DMSO), 5 days (fraction); higher = more cells survive
Sorafenib + Linsitinib = compound: CNC(=O)c1cc(Oc2ccc(NC(=O)Nc3ccc(Cl)c(C(F)(F)F)c3)cc2)ccn1 [Sorafenib] + C[C@]1(O)C[C@@H](c2nc(-c3ccc4ccc(-c5ccccc5)nc4c3)c3c(N)nccn32)C1 [Linsitinib] (partner 1 µM)
How it was run: (§1)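 Lung cancer cell lines were pin-tool dosed in 1536-well plates on the day after seeding, with either a lone drug or a fixed anchor-drug dose plus five library-drug doses (not always all listed) in √10 steps. Nuclei were counted on 4× images after 5 days. Relative viability is the ratio of treated-well to vehicle-well nuclei counts, with each value a median of duplicate plates.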

Sorafenib + Pemetrexed = compound: CNC(=O)c1cc(Oc2ccc(NC(=O)Nc3ccc(Cl)c(C(F)(F)F)c3)cc2)ccn1 [Sorafenib] + Nc1nc2[nH]cc(CCc3ccc(C(=O)N[C@@H](CCC(=O)O)C(=O)O)cc3)c2c(=O)[nH]1 [Pemetrexed] (partner 0.2 µM)
How it was run: as §1

Sorafenib + Crizotinib = compound: CNC(=O)c1cc(Oc2ccc(NC(=O)Nc3ccc(Cl)c(C(F)(F)F)c3)cc2)ccn1 [Sorafenib] + C[C@@H](Oc1cc(-c2cnn(C3CCNCC3)c2)cnc1N)c1c(Cl)ccc(F)c1Cl [Crizotinib] (partner 1 µM)
How it was run: as §1

Sorafenib + Palbociclib = compound: CNC(=O)c1cc(Oc2ccc(NC(=O)Nc3ccc(Cl)c(C(F)(F)F)c3)cc2)ccn1 [Sorafenib] + CC(=O)c1c(C)c2cnc(Nc3ccc(N4CCNCC4)cn3)nc2n(C2CCCC2)c1=O [Palbociclib] (partner 0.5 µM)
How it was run: as §1

Sorafenib + AZD7762 = compound: CNC(=O)c1cc(Oc2ccc(NC(=O)Nc3ccc(Cl)c(C(F)(F)F)c3)cc2)ccn1 [Sorafenib] + NC(=O)Nc1cc(-c2cccc(F)c2)sc1C(=O)N[C@H]1CCCNC1 [AZD7762] (partner 0.2 µM)
How it was run: as §1

Cell Line: HCC-44
- relative viability (Sorafenib + Linsitinib; first compound 0.08 µM): 0.68
- relative viability (Sorafenib + Linsitinib; first compound 0.253 µM): 0.629
- relative viability (Sorafenib + Linsitinib; first compound 8 µM): 0.658
- relative viability (Sorafenib + Pemetrexed; first compound 0.08 µM): 0.652
- relative viability (Sorafenib + Pemetrexed; first compound 0.253 µM): 0.607
- relative viability (Sorafenib + Pemetrexed; first compound 2.53 µM): 0.599
- relative viability (Sorafenib + Pemetrexed; first compound 8 µM): 0.61
- relative viability (Sorafenib + Crizotinib; first compound 0.08 µM): 0.811
- relative viability (Sorafenib + Crizotinib; first compound 0.253 µM): 0.735
- relative viability (Sorafenib + Crizotinib; first compound 2.53 µM): 0.725
- relative viability (Sorafenib + Crizotinib; first compound 8 µM): 0.565
- relative viability (Sorafenib + Palbociclib; first compound 0.08 µM): 0.96
- relative viability (Sorafenib + Palbociclib; first compound 0.253 µM): 0.771
- relative viability (Sorafenib + Palbociclib; first compound 2.53 µM): 0.858
- relative viability (Sorafenib + Palbociclib; first compound 8 µM): 0.834
- relative viability (Sorafenib + AZD7762; first compound 0.08 µM): 0.99
- relative viability (Sorafenib + AZD7762; first compound 0.253 µM): 0.938
- relative viability (Sorafenib + AZD7762; first compound 2.53 µM): 0.909

Cell Line: HCC-78
- relative viability (Sorafenib + Linsitinib; first compound 0.08 µM): 0.562
- relative viability (Sorafenib + Linsitinib; first compound 0.253 µM): 0.42
- relative viability (Sorafenib + Linsitinib; first compound 2.53 µM): 0.457
- relative viability (Sorafenib + Linsitinib; first compound 8 µM): 0.573
- relative viability (Sorafenib + Pemetrexed; first compound 0.08 µM): 0.936
- relative viability (Sorafenib + Pemetrexed; first compound 0.253 µM): 0.879
- relative viability (Sorafenib + Pemetrexed; first compound 2.53 µM): 0.847
- relative viability (Sorafenib + Pemetrexed; first compound 8 µM): 0.888
- relative viability (Sorafenib + Crizotinib; first compound 0.08 µM): 0.394
- relative viability (Sorafenib + Crizotinib; first compound 0.253 µM): 0.361
- relative viability (Sorafenib + Crizotinib; first compound 2.53 µM): 0.483
- relative viability (Sorafenib + Crizotinib; first compound 8 µM): 0.507
- relative viability (Sorafenib + Palbociclib; first compound 0.08 µM): 0.468
- relative viability (Sorafenib + Palbociclib; first compound 0.253 µM): 0.471
- relative viability (Sorafenib + Palbociclib; first compound 2.53 µM): 0.529
- relative viability (Sorafenib + Palbociclib; first compound 8 µM): 0.476
- relative viability (Sorafenib + AZD7762; first compound 0.08 µM): 0.846
- relative viability (Sorafenib + AZD7762; first compound 0.253 µM): 0.496
- relative viability (Sorafenib + AZD7762; first compound 2.53 µM): 0.863
- relative viability (Sorafenib + AZD7762; first compound 8 µM): 0.768

Cell Line: HCC-366
- relative viability (Sorafenib + Linsitinib; first compound 0.08 µM): 0.66
- relative viability (Sorafenib + Linsitinib; first compound 0.253 µM): 0.628
- relative viability (Sorafenib + Linsitinib; first compound 2.53 µM): 0.732
- relative viability (Sorafenib + Linsitinib; first compound 8 µM): 0.463
- relative viability (Sorafenib + Pemetrexed; first compound 0.08 µM): 0.158
- relative viability (Sorafenib + Pemetrexed; first compound 0.253 µM): 0.124
- relative viability (Sorafenib + Pemetrexed; first compound 2.53 µM): 0.127
- relative viability (Sorafenib + Pemetrexed; first compound 8 µM): 0.174
- relative viability (Sorafenib + Crizotinib; first compound 0.08 µM): 0.705
- relative viability (Sorafenib + Crizotinib; first compound 0.253 µM): 0.464
- relative viability (Sorafenib + Crizotinib; first compound 2.53 µM): 0.549
- relative viability (Sorafenib + Crizotinib; first compound 8 µM): 0.356
- relative viability (Sorafenib + Palbociclib; first compound 0.08 µM): 0.393
- relative viability (Sorafenib + Palbociclib; first compound 0.253 µM): 0.424
- relative viability (Sorafenib + Palbociclib; first compound 2.53 µM): 0.323
- relative viability (Sorafenib + Palbociclib; first compound 8 µM): 0.353
- relative viability (Sorafenib + AZD7762; first compound 0.08 µM): 0.306
- relative viability (Sorafenib + AZD7762; first compound 0.253 µM): 0.283
- relative viability (Sorafenib + AZD7762; first compound 2.53 µM): 0.181
- relative viability (Sorafenib + AZD7762; first compound 8 µM): 0.0837

Cell Line: HCC-827
- relative viability (Sorafenib + Linsitinib; first compound 0.08 µM): 0.934
- relative viability (Sorafenib + Linsitinib; first compound 0.253 µM): 0.88
- relative viability (Sorafenib + Linsitinib; first compound 2.53 µM): 0.986
- relative viability (Sorafenib + Linsitinib; first compound 8 µM): 0.851
- relative viability (Sorafenib + Pemetrexed; first compound 0.08 µM): 0.255
- relative viability (Sorafenib + Pemetrexed; first compound 0.253 µM): 0.288
- relative viability (Sorafenib + Pemetrexed; first compound 2.53 µM): 0.281
- relative viability (Sorafenib + Pemetrexed; first compound 8 µM): 0.251
- relative viability (Sorafenib + Crizotinib; first compound 0.253 µM): 0.918
- relative viability (Sorafenib + Crizotinib; first compound 2.53 µM): 0.94
- relative viability (Sorafenib + Crizotinib; first compound 8 µM): 0.853
- relative viability (Sorafenib + Palbociclib; first compound 0.08 µM): 0.572
- relative viability (Sorafenib + Palbociclib; first compound 0.253 µM): 0.478
- relative viability (Sorafenib + Palbociclib; first compound 2.53 µM): 0.492
- relative viability (Sorafenib + Palbociclib; first compound 8 µM): 0.514
- relative viability (Sorafenib + AZD7762; first compound 0.08 µM): 0.211
- relative viability (Sorafenib + AZD7762; first compound 0.253 µM): 0.207
- relative viability (Sorafenib + AZD7762; first compound 2.53 µM): 0.215
- relative viability (Sorafenib + AZD7762; first compound 8 µM): 0.161

Cell Line: HOP-62
- relative viability (Sorafenib + Linsitinib; first compound 0.08 µM): 1.14
- relative viability (Sorafenib + Linsitinib; first compound 0.253 µM): 0.839
- relative viability (Sorafenib + Linsitinib; first compound 2.53 µM): 0.781
- relative viability (Sorafenib + Linsitinib; first compound 8 µM): 0.49
- relative viability (Sorafenib + Pemetrexed; first compound 0.08 µM): 0.324
- relative viability (Sorafenib + Pemetrexed; first compound 0.253 µM): 0.303
- relative viability (Sorafenib + Pemetrexed; first compound 2.53 µM): 0.193
- relative viability (Sorafenib + Pemetrexed; first compound 8 µM): 0.135
- relative viability (Sorafenib + Crizotinib; first compound 0.08 µM): 1.01
- relative viability (Sorafenib + Crizotinib; first compound 0.253 µM): 0.901
- relative viability (Sorafenib + Crizotinib; first compound 2.53 µM): 0.84
- relative viability (Sorafenib + Crizotinib; first compound 8 µM): 0.57
- relative viability (Sorafenib + Palbociclib; first compound 0.08 µM): 0.454
- relative viability (Sorafenib + Palbociclib; first compound 0.253 µM): 0.372
- relative viability (Sorafenib + Palbociclib; first compound 2.53 µM): 0.358
- relative viability (Sorafenib + Palbociclib; first compound 8 µM): 0.263
- relative viability (Sorafenib + AZD7762; first compound 0.253 µM): 0.567
- relative viability (Sorafenib + AZD7762; first compound 2.53 µM): 0.405
- relative viability (Sorafenib + AZD7762; first compound 8 µM): 0.207

Cell Line: LC-2-ad
- relative viability (Sorafenib + Linsitinib; first compound 0.08 µM): 0.935
- relative viability (Sorafenib + Linsitinib; first compound 0.253 µM): 0.798
- relative viability (Sorafenib + Linsitinib; first compound 2.53 µM): 0.673
- relative viability (Sorafenib + Linsitinib; first compound 8 µM): 0.659
- relative viability (Sorafenib + Pemetrexed; first compound 0.08 µM): 0.305
- relative viability (Sorafenib + Pemetrexed; first compound 0.253 µM): 0.293
- relative viability (Sorafenib + Pemetrexed; first compound 2.53 µM): 0.258
- relative viability (Sorafenib + Pemetrexed; first compound 8 µM): 0.274
- relative viability (Sorafenib + Crizotinib; first compound 0.08 µM): 0.496
- relative viability (Sorafenib + Crizotinib; first compound 0.253 µM): 0.447
- relative viability (Sorafenib + Crizotinib; first compound 2.53 µM): 0.511
- relative viability (Sorafenib + Crizotinib; first compound 8 µM): 0.421
- relative viability (Sorafenib + Palbociclib; first compound 0.08 µM): 0.54
- relative viability (Sorafenib + Palbociclib; first compound 0.253 µM): 0.456
- relative viability (Sorafenib + Palbociclib; first compound 2.53 µM): 0.447
- relative viability (Sorafenib + Palbociclib; first compound 8 µM): 0.393
- relative viability (Sorafenib + AZD7762; first compound 0.08 µM): 0.942
- relative viability (Sorafenib + AZD7762; first compound 0.253 µM): 0.86
- relative viability (Sorafenib + AZD7762; first compound 2.53 µM): 0.967
- relative viability (Sorafenib + AZD7762; first compound 8 µM): 0.769

Cell Line: LCLC-97TM1
- relative viability (Sorafenib + Linsitinib; first compound 0.08 µM): 0.224
- relative viability (Sorafenib + Linsitinib; first compound 0.253 µM): 0.161
- relative viability (Sorafenib + Linsitinib; first compound 2.53 µM): 0.153
- relative viability (Sorafenib + Linsitinib; first compound 8 µM): 0.184
- relative viability (Sorafenib + Pemetrexed; first compound 0.08 µM): 0.154
- relative viability (Sorafenib + Pemetrexed; first compound 0.253 µM): 0.168
- relative viability (Sorafenib + Pemetrexed; first compound 2.53 µM): 0.118
- relative viability (Sorafenib + Pemetrexed; first compound 8 µM): 0.226
- relative viability (Sorafenib + Crizotinib; first compound 0.08 µM): 0.326
- relative viability (Sorafenib + Crizotinib; first compound 0.253 µM): 0.358
- relative viability (Sorafenib + Crizotinib; first compound 2.53 µM): 0.364
- relative viability (Sorafenib + Crizotinib; first compound 8 µM): 0.121
- relative viability (Sorafenib + Palbociclib; first compound 0.08 µM): 0.251
- relative viability (Sorafenib + Palbociclib; first compound 0.253 µM): 0.195
- relative viability (Sorafenib + Palbociclib; first compound 2.53 µM): 0.182
- relative viability (Sorafenib + Palbociclib; first compound 8 µM): 0.184
- relative viability (Sorafenib + AZD7762; first compound 0.08 µM): 0.311
- relative viability (Sorafenib + AZD7762; first compound 0.253 µM): 0.139
- relative viability (Sorafenib + AZD7762; first compound 2.53 µM): 0.229
- relative viability (Sorafenib + AZD7762; first compound 8 µM): 0.214

Cell Line: LCLC-103H
- relative viability (Sorafenib + Linsitinib; first compound 0.08 µM): 1.21
- relative viability (Sorafenib + Linsitinib; first compound 0.253 µM): 0.981
- relative viability (Sorafenib + Linsitinib; first compound 2.53 µM): 1.12
- relative viability (Sorafenib + Linsitinib; first compound 8 µM): 1.2
- relative viability (Sorafenib + Pemetrexed; first compound 0.08 µM): 0.526
- relative viability (Sorafenib + Pemetrexed; first compound 0.253 µM): 0.437
- relative viability (Sorafenib + Pemetrexed; first compound 2.53 µM): 0.422
- relative viability (Sorafenib + Pemetrexed; first compound 8 µM): 0.451
- relative viability (Sorafenib + Crizotinib; first compound 0.08 µM): 1.12
- relative viability (Sorafenib + Crizotinib; first compound 0.253 µM): 1.14
- relative viability (Sorafenib + Crizotinib; first compound 2.53 µM): 1.28
- relative viability (Sorafenib + Crizotinib; first compound 8 µM): 1.13
- relative viability (Sorafenib + Palbociclib; first compound 0.08 µM): 0.415
- relative viability (Sorafenib + Palbociclib; first compound 0.253 µM): 0.461
- relative viability (Sorafenib + Palbociclib; first compound 2.53 µM): 0.479
- relative viability (Sorafenib + Palbociclib; first compound 8 µM): 0.52
- relative viability (Sorafenib + AZD7762; first compound 0.08 µM): 0.778
- relative viability (Sorafenib + AZD7762; first compound 0.253 µM): 0.652
- relative viability (Sorafenib + AZD7762; first compound 2.53 µM): 0.769
- relative viability (Sorafenib + AZD7762; first compound 8 µM): 0.843
